Experimental data reported in PMC10610016, “New Hybrid Compounds Incorporating Natural Products as Multifunctional Agents against Alzheimer’s Disease” (Pharmaceutics, 2023).
Values joined by “and” are separate entries in the source; they are usually repeats but may differ in a detail not shown here. Equal values may be shown once. Read-outs that look alike come from different tables or passages of the source.

Experiments:
[1] = UV–Vis metal binding study, Cu2+ (mole ratio method); assay type: physicochemical; details: for stoichiometry for the Cu2+–ligand complex (molar fraction analysis): ligand 20 µM, Cu2+ 0 to 80 µM; for shift in UV spectrum in the presence of Cu2+ (first screening): ligand 20 μM, Cu2+ 80 µM, MeOH
Protocol: (§1) The synthesized compounds were tested for their metal chelating effect through spectroscopic measurements. The UV–Vis absorbance of compounds was recorded in the absence and presence of metal ions using a UV–Vis spectrometer (a SPECTROstarNano (220–1000 nm), Ortenberg, Germany. The experiment was performed in 96-well plates and each experiment was made in triplicates. A fixed amount of investigated ligand (20 μM) solubilized in MeOH was mixed with increasing concentration of Cu^2+ (CuCl2), Fe^2+ (FeSO4) and Zn^2+ (ZnCl2) from 0 to 80 μM and incubated for 30 min at room temperature (r.t.). The absorbance change was monitored at wavelengths ranging from 220 to 700 nm. The stoichiometry of studied compounds for Cu^2+ and Fe^2+ complexes was determined by employing the mole ratio method.

[2] = UV–Vis metal binding study, Fe2+ (mole ratio method); assay type: physicochemical
Protocol: as §1

[3] = ABTS assay; assay type: biochemical; details: for radical scavenger / antioxidant activity, ABTS: compound 100 µM; for EC50 / TEAC, ABTS: mean ± SEM of three independent experiments
Protocol: The ABTS assay was performed according to the methods reported in literature. Briefly, 7 mM of ABTS was mixed with 2.45 mM of K2S2O8 solution, ratio 1:1, in 10 mM phosphate buffer (pH 7.4). The mixture was incubated in a dark box at r.t. for 12 h, then the stock solution was diluted until the absorbance was 0.70 ± 0.02 at 734 nm.
In a 96-well plate, 190 µL ABTS working solution and 10 µL sample solution (compounds 2a–c, 3a–c at concentration of 100 μM) were mixed and the absorbance was measured (734 nm) using a SPECTROstarNano (220–1000 nm) UV–Vis spectrophotometer, Ortenberg, Germany. Then, for compounds 2a–c the EC50 was calculated and the values were expressed in TEAC equivalents. Each concentration was tested in triplicate and the EC50 was reported as the mean ± SEM of three independent experiments.

[4] = target: T1, Human Plasma TTR (Homo sapiens, UniProt P02766); experiment: ANS competitive binding (displacement) assay; details: TTR 8 µM, ANS 16 µM
T1 construct: purchased Merck Millipore, Molsheim, France; host or cells: human plasma
Protocol: The binding of ANS (8-anilino-1-naphthalenesulfonic acid), Sigma-Aldrich (St. Louis, MO, USA) and its displacement by the three selected compounds 2a–c were studied using Human Plasma TTR (Merck Millipore, Molsheim, France) according to the protocol previously described. Briefly, TTR (8 µM) was incubated with ANS (16 µM) at r.t. for 15 min in 96-well plates. Then, compounds 2a–c at concentrations of 100 µM were added. After 10 min, the fluorescent emission spectra (400–540 nm) were recorded exciting at 280 nm using Molecular Devices SpectraMax Gemini XPS plate reader, (San Jose, CA, USA). For compounds 2a, the IC50 was calculated and value was expressed as the mean ± SEM of the triplicate. All experiments were made in triplicate and, the fluorescence increases of ANS bound to TTR solution compared to its control without TTR, and TTR alone, in phosphate buffer, were used as a control.

[5] = target: T2, Aβ1-40 (Homo sapiens, UniProt P05067); experiment: Thioflavin T (ThT) fluorescence assay of Aβ1-40 fibril formation; assay type: biochemical; details: for inhibition of Aβ1-40 fibril formation (ThT): Aβ1-40 10 µM
T2 construct: Aβ1-40 was obtained from Bachem (Bubendorf, Switzerland); purchased Bachem (Bubendorf, Switzerland)
T2 sequence (P05067 672-711 limits assumed): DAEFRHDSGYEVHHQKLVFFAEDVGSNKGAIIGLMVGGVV
Protocol: Aβ1-40 was obtained from Bachem (Bubendorf, Switzerland). To remove preformed aggregates, it was dissolved during 15–20 min at r.t. in 1% NH4OH to give a concentration of 2 mg/mL, followed by immediate lyophilisation. The Aβ1-40 peptide was then dissolved in an aqueous 1% ammonia solution to a concentration of 1 mM and then, just prior to use, was diluted to 0.2 mM with 10 mM Tris-HCl, 100 mM NaCl buffer (pH 7.4). Compounds (2a–c) were dissolved in DMSO (4.9 mM), while TTR in phosphate buffer 20 mM buffer (pH 7.4) at 1 mM concentration. ThT fluorescence was measured to evaluate the development of Aβ1-40 fibrils over time using a fluorescence plate reader (Vantastar, BMG lab-tech, Ortenberg, Germany) with standard 96-well black microliter plates. The ThT fluorescence intensity was recorded by using excitation/emission settings at 440−15 nm/480−15nm for 21 h and applying a double orbital shaking of 10 s before the first cycle. Experiments were triggered by adding Aβ1-40 achieving a final concentration of 10 μM into a mixture containing 40 μM ThT in 10 mM Tris-HCl, 100 mM NaCl buffer (pH 7.4) with and without the studied compounds (10 μM) at 25 °C, and with and without CuCl2 (10 µM). When TTR was assessed in the presence of compound 2a, the ratio between TTR and 2a was adjusted to 1:2 (TTR:2a) in order to let the compound interacting with both hydrophobic pockets. A time of 3 h of incubation was employed before adding the solution into the well. The F reduction is depicted as the intensity of experimental fluorescence plateau observed with the studied compound relative to the value obtained without the compound and is quantified as the following percentage: ((F Aβ1-40+compound − F Aβ1-40)/(F Aβ1-40)) × 100. The data of fluorescence intensity come from at least two independent experiments, where each condition has been performed in duplicate, in the case of the presence of TTR (10 µM), or triplicate, in the case of the absence of TTR (10 µM), respectively. The values are given as averaged percentage ± SEM.

[6] = DPPH radical scavenging assay; assay type: biochemical; details: for %AA (percentage of antioxidant activity), DPPH: compound 100 µM, DPPH 60 µM in MeOH, 1 h; for EC50 / TEAC (Trolox equivalent antioxidant capacity), DPPH: mean ± SEM of three independent experiments
Protocol: The DPPH assay was carried out in a 96-microwell plate according to a previously described protocol. In brief, DPPH solution (60 µM in MeOH) was added to studied compounds or MeOH as the control. The 96-microwell plate was incubated (in the dark, at r.t. for 1 h) and the absorbance values were read at 517 nm by a SPECTROstarNano (220–1000 nm) UV–Vis spectrophotometer, Ortenberg, Germany. During the first screening, all compounds were tested ad 100 µM, then for compounds 2a–c the EC50 (effective concentration), the concentration of substrate that causes a 50% reduction in the DPPH colour, was calculated.
All experiments were made in triplicate. The percentage of the antioxidant activity (%AA) of the compounds was determined according to Equation (1):%AA = ((AbsDPPH − Abssample)/AbsDPPH) × 100(1)
AbsDPPH is the absorbance of DPPH solution, and Abssample is the absorbance of DPPH solution containing the tested compound.
Each concentration was tested in triplicate and the EC50 value was reported as the mean ± the standard error of the mean (SEM) of three independent experiments.

[7] = Colorimetric Fe2+ chelation with ferrozine; assay type: physicochemical; details: FeSO4, ferrozine
Protocol: (§2) Due to a non-measurable UV absorbance for compounds 4a and 5c, a different protocol using pyrocatechol violet (PV) was applied. The compounds (200 µM) incubated for 10 min with CuSO4 (200 µM), after 200 µM PV was added and the plate was incubated at 25 °C for 20 min. The absorption spectra were recorded. The same protocol was used for Fe^2+ (FeSO4) in presence of ferrozine.

[8] = Colorimetric Cu2+ chelation with pyrocatechol violet (PV); assay type: physicochemical; details: compound 200 µM, CuSO4 200 µM, PV 200 µM
Protocol: as §2

[9] = set-up: method as in PMID 31055242; details: literature value; cited from earlier work
[10] = set-up: method as in PMID 31055242; details: literature value; cited from earlier work; remark: listed apart in the source

O=C(C=Cc1ccccc1)NOCc1ccccc1C(F)(F)F [Compound 1a, N-((2-(trifluoromethyl)benzyl)oxy)cinnamamide]
melting point: 91 to 93 °C
stoichiometry for the Cu2+–ligand complex (molar fraction analysis) [1]: 1.0
shift in UV spectrum in the presence of Cu2+ (first screening) [1]: significant shift

O=C(C=Cc1ccccc1)NOCc1cccc(C(F)(F)F)c1 [Compound 1b, N-((3-(trifluoromethyl)benzyl)oxy)cinnamamide]
melting point: 91 to 93 °C

O=C(C=Cc1ccccc1)NOCc1ccc(C(F)(F)F)cc1 [Compound 1c, N-((4(trifluoromethyl)benzyl)oxy)cinnamamide]
melting point: 148 to 150 °C

O=C(/C=C/c1ccc(O)c(O)c1)NOCc1ccccc1C(F)(F)F [Compound 2a, (E)-3-(3,4-dihydroxyphenyl)-N-((2-(trifluoromethyl)benzyl)oxy)acrylamide]
melting point: 80 to 82 °C
molar fraction of the 2a–Fe2+ complex ([2]; Fe2+ 0 to 30 µM, absorbance changes at 330 nm): 1
change in UV spectrum when Fe2+ was added (first screening) ([2]; ligand 20 μM, Fe2+ 80 µM, MeOH): weak change
radical scavenger / antioxidant activity, ABTS [3]: 99.1%
EC50 [3]: 9.9 ± 0.2 µM
TEAC, ABTS [3]: 11.3 ± 0.1 µM
IC50 ([4]; mean ± SEM of triplicate): 31.9 µM
displacement of ANS from TTR ([4]; compound 100 µM): 71%
effect on Aβ1-40 fibril formation (ThT) ([5]; TTR 10 µM pre-incubated with 2a 20 µM (1:2 TTR/2a), without Cu2+): slight positive effect
inhibition of Aβ1-40 fibril formation (ThT) ([5]; with Cu2+ 10 µM, compound 10 µM): completely inhibition of the fibril formation
inhibition of Aβ1-40 fibril formation (ThT) ([5]; without Cu2+, compound 10 µM (1:1 ratio)): discrete inhibitory activity
shift in UV spectrum in the presence of Cu2+ (first screening) [1]: significant shift
%AA (percentage of antioxidant activity), DPPH [6]: 95%
EC50 [6]: 8.9 ± 0.2 µM
TEAC (Trolox equivalent antioxidant capacity), DPPH [6]: 12.4 ± 0.4 µM

O=C(/C=C/c1ccc(O)c(O)c1)NOCc1ccc(C(F)(F)F)cc1 [Compound 2c]
melting point: 188 to 190 °C
radical scavenger / antioxidant activity, ABTS [3]: 97.3%
EC50 [3]: 22.9 ± 0.5 µM
TEAC, ABTS [3]: 11.8 ± 0.02 µM
%AA (percentage of antioxidant activity), DPPH [6]: 96% and 58%
EC50 [6]: 6 ± 0.1 µM
TEAC (Trolox equivalent antioxidant capacity), DPPH [6]: 10.4 ± 0.4 µM

O=C(/C=C/c1ccc(O)cc1O)NOCc1ccccc1C(F)(F)F [Compound 3a, (E)-3-(2,4-dihydroxyphenyl)-N-((2-(trifluoromethyl)benzyl)oxy)acrylamide]
melting point: 165 to 167 °C
radical scavenger / antioxidant activity, ABTS [3]: 68%
stoichiometry for the Cu2+–ligand complex (molar fraction analysis) [1]: around 2
shift in UV spectrum in the presence of Cu2+ (first screening) [1]: significant shift
%AA (percentage of antioxidant activity), DPPH [6]: 59%

O=C(/C=C/c1ccc(O)cc1O)NOCc1cccc(C(F)(F)F)c1 [Compound 3b, (E)-3-(2,4-dihydroxyphenyl)-N-((3-(trifluoromethyl)benzyl)oxy)acrylamide]
melting point: 157 to 158 °C
radical scavenger / antioxidant activity, ABTS [3]: 67%
%AA (percentage of antioxidant activity), DPPH [6]: 60%

O=C(/C=C/c1ccc(O)cc1O)NOCc1ccc(C(F)(F)F)cc1 [Compound 3c, (E)-3-(2,4-dihydroxyphenyl)-N-((4-(trifluoromethyl)benzyl)oxy)acrylamide]
melting point: 176 to 178 °C
radical scavenger / antioxidant activity, ABTS [3]: 65%

CCCC(CCC)C(=O)NOCc1ccccc1C(F)(F)F [Compound 4a, 2-propyl-N-((2-(trifluoromethyl)benzyl)oxy)pentanamide]
melting point: 73 to 75 °C
interaction with Fe2+, colorimetric method with ferrozine [7]: No interaction
interaction with Cu2+, colorimetric method with PV [8]: slight shift

CCCC(CCC)C(=O)NOCc1cccc(C(F)(F)F)c1 [Compound 4b, 2-propyl-N-((3-(trifluoromethyl)benzyl)oxy)pentanamide]
melting point: 74 to 76 °C

CCCC(CCC)C(=O)NOCc1ccc(C(F)(F)F)cc1 [Compound 4c, 2-propyl-N-((4-(trifluoromethyl)benzyl)oxy)pentanamide]
melting point: 78 to 80 °C

O=C(CCCC[C@@H]1CCSS1)NOCc1ccccc1C(F)(F)F [Compound 5a, (R)-5-(1,2-dithiolan-3-yl)-N-((2-(trifluoromethyl)benzyl)oxy)pentanamide]
interaction with Fe2+, colorimetric method with ferrozine [7]: No interaction
interaction with Cu2+, colorimetric method with PV [8]: slight shift

O=C(O)/C=C/c1ccc(O)c(O)c1 [caffeic acid]
EC50 [9]: 13.3 µM
EC50 [10]: 10.9 µM
